Laboratory results reported in PubChem BioAssay AID424 (Public Access to Neuroactive & Anticonvulsant Chemical …, 2006).

Test system: not listed separately
Experiment: seizure model ED50 and toxic TD50 values – quantitative, MES, scMET, kindled rat, Frings mice, in vivo study, summary (AID 424)
Settings: Frings audiogenic mouse ED50

Q: For CCC1(C)CC(=O)NC1=O (configuration not stated), which ED50 is on record?
A: 328 mg/kg

Q: Which ED50 does the source give for O=C1CN=C(c2ccccc2Cl)c2cc([N+](=O)[O-])ccc2N1 here?
A: 0.105 mg/kg

Q: With NC(=O)N1c2ccccc2C=Cc2ccccc21 as the compound, how does the ED50 read?
A: 11.2 mg/kg

Same assay, conditions: i.p. mouse neurotoxicity TD50

Q: For CCC1(C)CC(=O)NC1=O (configuration not stated), which TD50 is on record?
A: 341 mg/kg

Q: Which TD50 does the source give for CCN(CC)CC(=O)Nc1c(C)cccc1C here?
A: 65.1 mg/kg

Q: With O=C1CN=C(c2ccccc2Cl)c2cc([N+](=O)[O-])ccc2N1 as the compound, how does the TD50 read?
A: 0.264 mg/kg

Q: For CCC1(c2ccccc2)C(=O)NC(=O)NC1=O, which TD50 is on record?
A: 45.5 mg/kg

Q: With NC(=O)N1c2ccccc2C=Cc2ccccc21 as the compound, how does the TD50 read?
A: 45.4 mg/kg

Same assay, conditions: i.p. mouse scBic ED50

Q: With CCC1(C)CC(=O)NC1=O (configuration not stated) as the compound, how does the ED50 read?
A: 272 mg/kg

Q: With CCN(CC)CC(=O)Nc1c(C)cccc1C as the compound, how does the ED50 read?
A: > 70 mg/kg

Q: Which ED50 does the source give for O=C1CN=C(c2ccccc2Cl)c2cc([N+](=O)[O-])ccc2N1 here?
A: 0.039 mg/kg

Q: With CCC1(c2ccccc2)C(=O)NC(=O)NC1=O as the compound, how does the ED50 read?
A: 37.7 mg/kg

Q: Which ED50 does the source give for NC(=O)N1c2ccccc2C=Cc2ccccc21 here?
A: > 50 mg/kg

Same assay, conditions: i.p. mouse scMET ED50

Q: Which ED50 does the source give for CCC1(C)CC(=O)NC1=O (configuration not stated) here?
A: 136 mg/kg

Q: With CCN(CC)CC(=O)Nc1c(C)cccc1C as the compound, how does the ED50 read?
A: > 66 mg/kg

Q: Which ED50 does the source give for O=C1CN=C(c2ccccc2Cl)c2cc([N+](=O)[O-])ccc2N1 here?
A: 0.024 mg/kg

Q: Which ED50 does the source give for CCC1(c2ccccc2)C(=O)NC(=O)NC1=O here?
A: 13.9 mg/kg

Q: For NC(=O)N1c2ccccc2C=Cc2ccccc21, which ED50 is on record?
A: > 50 mg/kg

Same assay, conditions: i.p. mouse scPic ED50

Q: With CCC1(C)CC(=O)NC1=O (configuration not stated) as the compound, how does the ED50 read?
A: 226 mg/kg

Q: For CCN(CC)CC(=O)Nc1c(C)cccc1C, which ED50 is on record?
A: > 70 mg/kg

Q: With O=C1CN=C(c2ccccc2Cl)c2cc([N+](=O)[O-])ccc2N1 as the compound, how does the ED50 read?
A: 0.074 mg/kg

Q: Which ED50 does the source give for CCC1(c2ccccc2)C(=O)NC(=O)NC1=O here?
A: 27.5 mg/kg

Q: For NC(=O)N1c2ccccc2C=Cc2ccccc21, which ED50 is on record?
A: 18.2 mg/kg

Same assay, conditions: i.p. rat MES ED50

Q: For CCC1(C)CC(=O)NC1=O (configuration not stated), which ED50 is on record?
A: > 220 mg/kg

Q: With O=C1CN=C(c2ccccc2Cl)c2cc([N+](=O)[O-])ccc2N1 as the compound, how does the ED50 read?
A: 0.67 mg/kg

Q: With CCC1(c2ccccc2)C(=O)NC(=O)NC1=O as the compound, how does the ED50 read?
A: 2.61 mg/kg

Q: For NC(=O)N1c2ccccc2C=Cc2ccccc21, which ED50 is on record?
A: 4.05 mg/kg

Same assay, conditions: oral mouse MES ED50

Q: For CCC1(C)CC(=O)NC1=O (configuration not stated), which ED50 is on record?
A: > 1000 mg/kg

Q: With CCN(CC)CC(=O)Nc1c(C)cccc1C as the compound, how does the ED50 read?
A: 21 mg/kg

Q: For O=C1CN=C(c2ccccc2Cl)c2cc([N+](=O)[O-])ccc2N1, which ED50 is on record?
A: 42.8 mg/kg

Q: With NC(=O)N1c2ccccc2C=Cc2ccccc21 as the compound, how does the ED50 read?
A: 11.9 mg/kg

Same assay, conditions: oral mouse scMET ED50

Q: Which ED50 does the source give for CCC1(C)CC(=O)NC1=O (configuration not stated) here?
A: 203 mg/kg

Q: For CCN(CC)CC(=O)Nc1c(C)cccc1C, which ED50 is on record?
A: > 140 mg/kg

Q: For O=C1CN=C(c2ccccc2Cl)c2cc([N+](=O)[O-])ccc2N1, which ED50 is on record?
A: 0.03 mg/kg

Q: Which ED50 does the source give for NC(=O)N1c2ccccc2C=Cc2ccccc21 here?
A: 40.9 mg/kg

Same assay, conditions: oral rat MES ED50

Q: Which ED50 does the source give for CCC1(C)CC(=O)NC1=O (configuration not stated) here?
A: > 500 mg/kg

Q: With CCN(CC)CC(=O)Nc1c(C)cccc1C as the compound, how does the ED50 read?
A: 31.2 mg/kg

Q: With O=C1CN=C(c2ccccc2Cl)c2cc([N+](=O)[O-])ccc2N1 as the compound, how does the ED50 read?
A: 7.86 mg/kg

Q: For CCC1(c2ccccc2)C(=O)NC(=O)NC1=O, which ED50 is on record?
A: 8.26 mg/kg

Q: With NC(=O)N1c2ccccc2C=Cc2ccccc21 as the compound, how does the ED50 read?
A: 5.35 mg/kg

Same assay, conditions: oral rat scMET ED50

Q: Which ED50 does the source give for CCC1(C)CC(=O)NC1=O (configuration not stated) here?
A: 167 mg/kg

Q: Which ED50 does the source give for CCN(CC)CC(=O)Nc1c(C)cccc1C here?
A: > 250 mg/kg

Q: Which ED50 does the source give for O=C1CN=C(c2ccccc2Cl)c2cc([N+](=O)[O-])ccc2N1 here?
A: 0.607 mg/kg

Q: With CCC1(c2ccccc2)C(=O)NC(=O)NC1=O as the compound, how does the ED50 read?
A: 26.1 mg/kg

Q: For NC(=O)N1c2ccccc2C=Cc2ccccc21, which ED50 is on record?
A: > 250 mg/kg

Same assay, conditions: oral rat toxicity TD50

Q: For CCC1(C)CC(=O)NC1=O (configuration not stated), which TD50 is on record?
A: > 500 mg/kg

Q: With CCN(CC)CC(=O)Nc1c(C)cccc1C as the compound, how does the TD50 read?
A: 283 mg/kg

Q: For O=C1CN=C(c2ccccc2Cl)c2cc([N+](=O)[O-])ccc2N1, which TD50 is on record?
A: 2.38 mg/kg

Q: Which TD50 does the source give for CCC1(c2ccccc2)C(=O)NC(=O)NC1=O here?
A: 51 mg/kg

Q: For NC(=O)N1c2ccccc2C=Cc2ccccc21, which TD50 is on record?
A: 364 mg/kg

Test system: mouse i.p. maximal electroshock seizure protection, ED50
Experiment: as above
Settings: not given

Q: Which ED50 does the source give for CCN(CC)CC(=O)Nc1c(C)cccc1C here?
A: 14.4 mg/kg

Q: With O=C1CN=C(c2ccccc2Cl)c2cc([N+](=O)[O-])ccc2N1 as the compound, how does the ED50 read?
A: 25.5 mg/kg

Q: For CCC1(c2ccccc2)C(=O)NC(=O)NC1=O, which ED50 is on record?
A: 11.3 mg/kg

Q: With NC(=O)N1c2ccccc2C=Cc2ccccc21 as the compound, how does the ED50 read?
A: 7.81 mg/kg

Same assay, conditions: measured here: kindled rat ED50

Q: With O=C1CN=C(c2ccccc2Cl)c2cc([N+](=O)[O-])ccc2N1 as the compound, how does the ED50 read?
A: 0.79 mg/kg

Q: For CCC1(c2ccccc2)C(=O)NC(=O)NC1=O, which ED50 is on record?
A: 19.7 mg/kg

Q: For NC(=O)N1c2ccccc2C=Cc2ccccc21, which ED50 is on record?
A: 28.2 mg/kg
